Assay results: US10669283B2, “Compound and pharmacologically acceptable salt thereof” (MEIJI SEIKA PHARMA CO., LTD., priority 2016, dated 2020)
Read-outs that look alike come from different tables or passages of the source.

What was measured:
[1] = Hepatic metabolic stability (rat liver microsome method); format: in vitro ADME; conditions: rat liver microsomes 0.5 mg/mL, test substance 1 μM, NADPH 1 mM, 37° C., 30 minutes
Method: Metabolic stability in rat liver microsomes was evaluated by the following method. In 100 mM of potassium phosphate buffer solution (pH 7.4), liver microsomes (concentration at reaction: 0.5 mg/mL) and the test substance (concentration at reaction: 1 μM) were preincubated at 37° C. Five minutes later, 100 mM of potassium phosphate buffer (pH 7.4) solution of NADPH (concentration at reaction: 1 mM) was mixed thereto to start the reaction. After a predetermined time passed, acetonitrile was mixed to the reaction mixture to stop the reaction. Here, the reaction time was 0 and 30 minutes, and drug concentration measurement was performed for each time period using LC-MS. The % remaining value of the test compound was calculated from the value for 0 minutes and the value for 30 minutes, using the calculation formula below: % Remaining=(Value for 30 Minutes/Value for 0 Minutes)×100
The results of measuring the rat liver microsome metabolic Stability (% remaining for 30-minute reaction) for the test compound by the above method were evaluated in accordance with the following evaluated basis; A: a % remaining rate of 75% or more, B: 60% or more and less than 75%, C: 45% or more and less than 60%, and D: less than 45%.

[2] = test system: PDE4; assay: PDE4 inhibition, scintillation proximity assay (SPA); format: biochemical
How it was run: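 Compound pre-diluted 1:10 in 50 mM Tris-HCl pH 7.4, 8.3 mM MgCl2, 1.7 mM EGTA, 3 mg/mL BSA, then incubated with PDE4 and [2,8-3H]-cAMP for 120 min at room temperature. Product captured on ZnSO4-containing YSi-SPA beads for 15 min; radioactivity counted against no-enzyme blank and DMSO control.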

[3] = scintillation proximity assay, class symbols, read-out: PDE4 Inhibitory Activity
[4] = scintillation proximity assay (SPA), evaluated as classes A, B, C, read-out: PDE4 Inhibitory Activity (concentration for the inhibition rate of 50%)

OCC(F)(F)Oc1ccc(-c2nccs2)c2oc(N3CC4CC(C3)N4O)nc12 [Example 374, 3-(4-(1,1-difluoro-2-hydroxyethoxy)-7-(thiazol-2-yl)benzo [d]oxazol-2-yl)-3,6-diazabicyclo[3.1.1] heptan-6-ol]
Residual ratio (% remaining for 30-minute reaction) [1]: B (60% or more and less than 75%)
IC50 [2, 3]: < 100 nM

CC(C)(O)C(F)(F)Oc1ccc(-c2ncns2)c2oc(N3CC4CCC(C3)N4)nc12 [Example 327, 1-((2-(3,8-Diazabicyclo[3.2.1]octan-3-yl)-7-(1,2,4-thiadiazol-5-yl)benzo[d]oxazol-4-yl)oxy)-1,1-difluoro-2-methylpropan-2-ol]
Residual ratio (% remaining for 30-minute reaction) [1]: B (60% or more and less than 75%)
IC50 [2, 3]: < 100 nM

OCc1cnc(Oc2ccc(-c3nccs3)c3oc(N4CC5CC(C4)N5)nc23)c(C(F)(F)F)c1 [Example 342, (6-((2-(3,6-diazabicyclo[3.1.1]heptan-3-yl)-7-(thiazol-2-yl)benzo[d]oxazol-4-yl)oxy)-5-(trifluoromethyl)pyridin-3-yl) methanol]
Residual ratio (% remaining for 30-minute reaction) [1]: B (60% or more and less than 75%)
IC50 [2, 3]: < 100 nM

FC(F)(F)c1c(Cl)cc(-n2cccn2)c2oc(N3CC4CC(C3)N4)nc12 [Example 17, 2-(3,6-Diazabicyclo[3.1.1]heptan-3-yl)-5-chloro-7-(1H-pyrazol-1-yl)-4-(trifluoromethyl)benzo[d]oxazole]
Residual ratio (% remaining for 30-minute reaction) [1]: B (60% or more and less than 75%)
IC50 [2, 4]: < 100 nM

NC(=O)C(F)(F)Oc1ccc(-c2nccs2)c2oc(N3CC4CC(C3)N4)nc12 [Example 410, 2-((2-(3,6-diazabicyclo [3.1.1]heptan-3-yl)-7-(thiazol-2-yl)benzo[d]oxazol-4-yl)oxy)-2,2-difluoro-acetamide]
Residual ratio (% remaining for 30-minute reaction) [1]: A (a % remaining rate of 75% or more)
IC50 [2, 3]: < 100 nM

NC(=O)c1ccc(-c2nccs2)c2oc(N3CC4CC(C3)N4)nc12 [Example 354, 2-(3,6-diazabicyclo [3.1.1]heptan-3-yl)-7-(thiazol-2-yl)benzo[d] oxazole-4-carboxamide]
Residual ratio (% remaining for 30-minute reaction) [1]: A (a % remaining rate of 75% or more)
IC50 [2, 3]: < 100 nM

CC(O)C(F)(F)Oc1ccc(-c2nccs2)c2oc(N3CC4CC(C3)N4O)nc12 (single isomer, unassigned) [Example 372, 3-(4-(1,1-difluoro-2-hydroxypropoxy)-7-(thiazol-2-yl)benzo [d]oxazol-2-yl)-3,6-diazabicyclo[3.1.1] heptan-6-ol]
Residual ratio (% remaining for 30-minute reaction) [1]: B (60% or more and less than 75%)
IC50 [2, 3]: < 100 nM

O=C(c1ccc(-c2nccs2)c2oc(N3CC4CC(C3)N4)nc12)N1CCOCC1 [Example 359, (2-(3,6-diazabicyclo [3.1.1]heptan-3-yl)-7-(thiazol-2-yl)benzo[d]oxazol-4-yl) (morpholino) methanone]
Residual ratio (% remaining for 30-minute reaction) [1]: A (a % remaining rate of 75% or more)
IC50 [2, 3]: 100 to 1000 nM

CS(=O)(=O)c1ccc(-c2nccs2)c2oc(N3CC4CC(C3)N4)nc12 [Example 347, 2-(3,6-diazabicyclo[3.1.1]heptan-3-yl)-4-(methylsulfonyl)-7-(thiazol-2-yl)benzo [d]oxazole]
Residual ratio (% remaining for 30-minute reaction) [1]: A (a % remaining rate of 75% or more)
IC50 [2, 3]: < 100 nM

[O-][S+](CCO)c1ccc(-c2nccs2)c2oc(N3CC4CC(C3)N4)nc12 (stereo not drawn) [Example 349, 2-((2-(3,6-diazabicyclo[3.1.1]heptan-3-yl)-7-(thiazol-2-yl)benzo [d]oxazol-4-yl)sulfinyl)ethan-1-ol]
Residual ratio (% remaining for 30-minute reaction) [1]: A (a % remaining rate of 75% or more)
IC50 [2, 3]: < 100 nM

O=C(NCCO)C(F)(F)Oc1ccc(-c2nccs2)c2oc(N3CC4CC(C3)N4)nc12 [Example 411, 2-((2-(3,6-diazabicyclo [3.1.1]heptan-3-yl)-7-(thiazol-2-yl)benzo[d]oxazol-4-yl)oxy)-2,2-difluoro-N-(2-hydroxy-ethyl) acetamide]
Residual ratio (% remaining for 30-minute reaction) [1]: A (a % remaining rate of 75% or more)
IC50 [2, 3]: < 100 nM

c1csc(-c2ccc(N3CCOCC3)c3nc(N4CC5CC(C4)N5)oc23)n1 [Example 369, 2-(3,6-diazabicyclo[3.1.1]heptan-3-yl)-4-morpholino-7-(thiazol-2-yl) benzo[d]oxazole]
Residual ratio (% remaining for 30-minute reaction) [1]: B (60% or more and less than 75%)
IC50 [2, 3]: < 100 nM

O=C(NC1CC1)c1ccc(-c2nccs2)c2oc(N3CC4CC(C3)N4)nc12 [Example 357, 2-(3,6-diazabicyclo [3.1.1]heptan-3-yl)-N-cyclopropyl-7-(thiazol-2-yl) benzo[d]oxazole-4-carboxamide]
Residual ratio (% remaining for 30-minute reaction) [1]: A (a % remaining rate of 75% or more)
IC50 [2, 3]: < 100 nM

CC(C)(O)C(F)(F)Oc1ccc(-n2cccn2)c2oc(N3CC4CC(C3)N4)nc12 [Example 304, 1-((2-(3,6-Diazabicyclo[3.1.1]heptan-3-yl)-7-(1H-pyrazol-1-yl)benzo[d]oxazol-4-yl)oxy)-1,1-difluoro-2-methylpropan-2-ol]
Residual ratio (% remaining for 30-minute reaction) [1]: A (a % remaining rate of 75% or more)
IC50 [2, 4]: < 100 nM

OCc1ccc(Oc2ccc(-c3nccs3)c3oc(N4CC5CC(C4)N5)nc23)nc1 [Example 341, (6-((2-(3,6-diazabicyclo[3.1.1]heptan-3-yl)-7-(thiazol-2-yl)benzo[d]oxazol-4-yl)oxy)pyridin-3-yl)methanol]
Residual ratio (% remaining for 30-minute reaction) [1]: A (a % remaining rate of 75% or more)
IC50 [2, 3]: < 100 nM

CC(C)(O)C(F)(F)Oc1ccc(-c2nccs2)c2oc(N3CC4CCC(C3)N4)nc12 [Example 405, 1-((2-(3,8-diazabicyclo [3.2.1]octan-3-yl)-7-(thiazol-2-yl)benzo[d]oxazol-4-yl)oxy)-1,1-difluoro-2-methylpropan-2-ol]
Residual ratio (% remaining for 30-minute reaction) [1]: B (60% or more and less than 75%)
IC50 [2, 3]: < 100 nM

c1ccc(Oc2ccc(-c3nccs3)c3oc(N4CC5CC(C4)N5)nc23)nc1 [Example 337, 2-(3,6-diazabicyclo [3.1.1]heptan-3-yl)-4-(pyridin-2-yloxy)-7-(thiazol-2-yl)benzo[d] oxazole]
Residual ratio (% remaining for 30-minute reaction) [1]: B (60% or more and less than 75%)
IC50 [2, 3]: < 100 nM

CC(O)(CO)C(F)(F)Oc1ccc(-c2nccs2)c2oc(N3CC4CC(C3)N4)nc12 (single isomer, unassigned) [Example 365, 3-((2-(3,6-diazabicyclo [3.1.1]heptan-3-yl)-7-(thiazol-2-yl)benzo[d]oxazol-4-yl)oxy)-3,3-difluoro-2-methylpropane-1,2-diol]
Residual ratio (% remaining for 30-minute reaction) [1]: A (a % remaining rate of 75% or more)
IC50 [2, 3]: < 100 nM

OC1CC(Oc2ccc(-c3nccs3)c3oc(N4CC5CC(C4)N5)nc23)C1 (stereo not drawn) [Example 285, 3-((2-(3,6-Diazabicyclo[3.1.1]heptan-3-yl)-7-(thiazol-2-yl)benzo[d]oxazol-4-yl)oxy)cyclobutan-1-ol]
Residual ratio (% remaining for 30-minute reaction) [1]: A (a % remaining rate of 75% or more)
IC50 [2, 4]: < 100 nM

FC(F)(F)C(OCc1nnn[nH]1)c1ccc(-c2nccs2)c2oc(N3CC4CC(C3)N4)nc12 (stereo not drawn) [Example 231, 4-(1-((1H-tetrazol-5-yl)methoxy)-2,2,2-trifluoroethyl)-2-(3,6-diazabicyclo[3.1.1]heptan-3-yl)-7-(thiazol-2-yl)benzo[d]oxazole]
Residual ratio (% remaining for 30-minute reaction) [1]: A (a % remaining rate of 75% or more)
IC50 [2, 4]: < 100 nM

CN(CCO)C(=O)c1ccc(-c2nccs2)c2oc(N3CC4CC(C3)N4)nc12 [Example 356, 2-(3,6-diazabicyclo [3.1.1]heptan-3-yl)-N-(2-hydroxyethyl)-N-methyl-7-(thiazol-2-yl)benzo[d] oxazole-4-carboxamide]
Residual ratio (% remaining for 30-minute reaction) [1]: A (a % remaining rate of 75% or more)
IC50 [2, 3]: 100 to 1000 nM

c1csc(-c2ccc(O[C@@H]3CCOC3)c3nc(N4CC5CC(C4)N5)oc23)n1 [Example 324, 2-(3,6-Diazabicyclo[3.1.1]heptan-3-yl)-4-(((R)-tetrahydrofuran-3-yl)oxy)-7-(thiazol-2-yl)benzo[d]oxazole]
Residual ratio (% remaining for 30-minute reaction) [1]: A (a % remaining rate of 75% or more)
IC50 [2, 4]: < 100 nM

CC(C)(O)C(F)(F)Oc1ccc(-n2cccn2)c2oc(N3CC4CCC(C3)N4)nc12 [Example 316, 1-((2-(3,8-Diazabicyclo[3.2.1]octan-3-yl)-7-(1H-pyrazol-1-yl)benzo[d]oxazol-4-yl)oxy)-1,1-difluoro-2-methylpropan-2-ol]
Residual ratio (% remaining for 30-minute reaction) [1]: A (a % remaining rate of 75% or more)
IC50 [2, 4]: < 100 nM

CC(C)(O)C(F)(F)Oc1ccc(-c2ccc(F)cn2)c2oc(N3CC4CCC(C3)N4)nc12 [Example 332, 1-((2-(3,8-diazabicyclo [3.2.1]octan-3-yl)-7-(5-fluoropyridin-2-yl)benzo[d]oxazol-4-yl)oxy)-1,1-difluoro-2-methylpropan-2-ol]
Residual ratio (% remaining for 30-minute reaction) [1]: A (a % remaining rate of 75% or more)
IC50 [2, 3]: < 100 nM
